Tests used:
Assay in all cases: kinome screen (33PanQinase)
Type in all cases: biochemical
RIPK4 = molecular target: T1, RIPK4 (Homo sapiens, UniProt P57078)
T1 construct: purchased Reaction Biology Europe GmbH (formerly ProQinase)
T1 sequence (P57078 1-832): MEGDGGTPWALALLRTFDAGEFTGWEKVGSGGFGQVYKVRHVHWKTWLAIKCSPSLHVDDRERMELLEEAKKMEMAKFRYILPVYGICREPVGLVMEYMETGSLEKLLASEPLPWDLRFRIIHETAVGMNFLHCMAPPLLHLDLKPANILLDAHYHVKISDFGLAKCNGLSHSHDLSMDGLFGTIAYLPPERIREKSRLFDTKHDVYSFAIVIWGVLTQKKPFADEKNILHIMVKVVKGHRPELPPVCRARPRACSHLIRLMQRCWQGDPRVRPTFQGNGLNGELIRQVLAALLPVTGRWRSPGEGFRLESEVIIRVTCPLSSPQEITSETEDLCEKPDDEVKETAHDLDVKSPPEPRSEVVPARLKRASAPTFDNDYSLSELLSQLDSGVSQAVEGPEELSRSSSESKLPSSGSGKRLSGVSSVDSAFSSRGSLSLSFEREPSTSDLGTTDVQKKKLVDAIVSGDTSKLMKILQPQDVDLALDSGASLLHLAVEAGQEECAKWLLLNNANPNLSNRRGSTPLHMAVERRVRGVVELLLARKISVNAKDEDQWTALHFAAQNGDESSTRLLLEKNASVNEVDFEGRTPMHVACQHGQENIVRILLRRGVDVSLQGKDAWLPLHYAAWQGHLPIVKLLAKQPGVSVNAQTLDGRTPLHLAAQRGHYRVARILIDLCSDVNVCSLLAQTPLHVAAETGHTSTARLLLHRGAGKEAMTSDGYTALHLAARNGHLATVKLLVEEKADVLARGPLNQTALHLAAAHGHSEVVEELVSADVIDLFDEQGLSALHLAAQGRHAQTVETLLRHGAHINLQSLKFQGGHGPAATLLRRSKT
Protocol: (§1) The Kinome Screening was performed by Reaction Biology Europe GmbH (http://reactionbiology.com; Freiburg i. Br., Germany).

MARK4 = molecular target: T2, MARK4 (Homo sapiens, UniProt Q96L34)
T2 construct: purchased Reaction Biology Europe GmbH (formerly ProQinase)
T2 sequence (Q96L34 1-752): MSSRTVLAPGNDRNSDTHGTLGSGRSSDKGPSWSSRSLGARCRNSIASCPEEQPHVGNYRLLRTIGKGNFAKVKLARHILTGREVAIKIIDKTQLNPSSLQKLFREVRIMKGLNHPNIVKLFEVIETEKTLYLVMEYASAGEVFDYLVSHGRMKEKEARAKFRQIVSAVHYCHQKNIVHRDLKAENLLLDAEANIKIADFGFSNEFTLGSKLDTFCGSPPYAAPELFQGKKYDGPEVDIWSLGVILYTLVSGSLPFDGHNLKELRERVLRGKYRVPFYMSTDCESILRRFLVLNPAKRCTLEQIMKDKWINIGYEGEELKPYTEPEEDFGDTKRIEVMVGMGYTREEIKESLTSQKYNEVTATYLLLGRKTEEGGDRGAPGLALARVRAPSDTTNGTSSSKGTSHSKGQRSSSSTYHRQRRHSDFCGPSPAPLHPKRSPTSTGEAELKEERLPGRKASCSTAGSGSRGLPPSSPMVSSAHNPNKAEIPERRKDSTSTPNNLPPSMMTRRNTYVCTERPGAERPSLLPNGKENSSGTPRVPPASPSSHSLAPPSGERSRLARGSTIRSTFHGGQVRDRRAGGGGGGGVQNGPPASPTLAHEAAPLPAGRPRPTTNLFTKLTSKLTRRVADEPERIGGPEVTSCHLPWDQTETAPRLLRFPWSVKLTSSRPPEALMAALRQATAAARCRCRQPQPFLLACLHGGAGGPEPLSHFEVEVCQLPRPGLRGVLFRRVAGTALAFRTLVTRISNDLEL
Protocol: as §1

CDK9/CycK = molecular target: T3, CDK9/CycK (Homo sapiens, UniProt P50750)
T3 construct: purchased Reaction Biology Europe GmbH (formerly ProQinase)
Protocol: as §1

RPS6KA6 = molecular target: T4, RPS6KA6 (Homo sapiens, UniProt Q9UK32)
T4 construct: purchased Reaction Biology Europe GmbH (formerly ProQinase)
T4 sequence (Q9UK32 whole entry): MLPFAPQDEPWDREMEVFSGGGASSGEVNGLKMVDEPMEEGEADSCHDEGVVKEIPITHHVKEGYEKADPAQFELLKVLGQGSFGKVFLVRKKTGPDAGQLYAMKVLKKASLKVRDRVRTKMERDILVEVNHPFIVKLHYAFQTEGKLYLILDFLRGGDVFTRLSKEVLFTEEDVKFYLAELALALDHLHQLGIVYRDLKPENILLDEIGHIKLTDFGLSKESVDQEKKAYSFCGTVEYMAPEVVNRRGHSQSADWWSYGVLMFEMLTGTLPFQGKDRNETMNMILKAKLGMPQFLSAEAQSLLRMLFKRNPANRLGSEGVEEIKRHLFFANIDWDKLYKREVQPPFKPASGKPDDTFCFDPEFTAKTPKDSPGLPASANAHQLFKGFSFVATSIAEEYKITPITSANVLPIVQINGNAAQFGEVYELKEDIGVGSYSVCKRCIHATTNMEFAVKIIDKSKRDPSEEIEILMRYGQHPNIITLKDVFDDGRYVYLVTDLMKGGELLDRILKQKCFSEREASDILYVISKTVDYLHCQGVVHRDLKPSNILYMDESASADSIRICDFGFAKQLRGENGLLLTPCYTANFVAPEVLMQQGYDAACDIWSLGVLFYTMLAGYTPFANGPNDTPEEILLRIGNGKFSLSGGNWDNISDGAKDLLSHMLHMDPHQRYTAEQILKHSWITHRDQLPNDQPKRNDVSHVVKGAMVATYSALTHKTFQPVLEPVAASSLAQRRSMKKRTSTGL
Protocol: as §1

GRK4 = molecular target: T5, GRK4 (Homo sapiens, UniProt P32298)
T5 construct: purchased Reaction Biology Europe GmbH (formerly ProQinase)
Protocol: as §1

ALK = molecular target: T6, ALK (Homo sapiens, UniProt Q9UM73)
T6 construct: purchased Reaction Biology Europe GmbH (formerly ProQinase)
T6 sequence (Q9UM73 19-1620): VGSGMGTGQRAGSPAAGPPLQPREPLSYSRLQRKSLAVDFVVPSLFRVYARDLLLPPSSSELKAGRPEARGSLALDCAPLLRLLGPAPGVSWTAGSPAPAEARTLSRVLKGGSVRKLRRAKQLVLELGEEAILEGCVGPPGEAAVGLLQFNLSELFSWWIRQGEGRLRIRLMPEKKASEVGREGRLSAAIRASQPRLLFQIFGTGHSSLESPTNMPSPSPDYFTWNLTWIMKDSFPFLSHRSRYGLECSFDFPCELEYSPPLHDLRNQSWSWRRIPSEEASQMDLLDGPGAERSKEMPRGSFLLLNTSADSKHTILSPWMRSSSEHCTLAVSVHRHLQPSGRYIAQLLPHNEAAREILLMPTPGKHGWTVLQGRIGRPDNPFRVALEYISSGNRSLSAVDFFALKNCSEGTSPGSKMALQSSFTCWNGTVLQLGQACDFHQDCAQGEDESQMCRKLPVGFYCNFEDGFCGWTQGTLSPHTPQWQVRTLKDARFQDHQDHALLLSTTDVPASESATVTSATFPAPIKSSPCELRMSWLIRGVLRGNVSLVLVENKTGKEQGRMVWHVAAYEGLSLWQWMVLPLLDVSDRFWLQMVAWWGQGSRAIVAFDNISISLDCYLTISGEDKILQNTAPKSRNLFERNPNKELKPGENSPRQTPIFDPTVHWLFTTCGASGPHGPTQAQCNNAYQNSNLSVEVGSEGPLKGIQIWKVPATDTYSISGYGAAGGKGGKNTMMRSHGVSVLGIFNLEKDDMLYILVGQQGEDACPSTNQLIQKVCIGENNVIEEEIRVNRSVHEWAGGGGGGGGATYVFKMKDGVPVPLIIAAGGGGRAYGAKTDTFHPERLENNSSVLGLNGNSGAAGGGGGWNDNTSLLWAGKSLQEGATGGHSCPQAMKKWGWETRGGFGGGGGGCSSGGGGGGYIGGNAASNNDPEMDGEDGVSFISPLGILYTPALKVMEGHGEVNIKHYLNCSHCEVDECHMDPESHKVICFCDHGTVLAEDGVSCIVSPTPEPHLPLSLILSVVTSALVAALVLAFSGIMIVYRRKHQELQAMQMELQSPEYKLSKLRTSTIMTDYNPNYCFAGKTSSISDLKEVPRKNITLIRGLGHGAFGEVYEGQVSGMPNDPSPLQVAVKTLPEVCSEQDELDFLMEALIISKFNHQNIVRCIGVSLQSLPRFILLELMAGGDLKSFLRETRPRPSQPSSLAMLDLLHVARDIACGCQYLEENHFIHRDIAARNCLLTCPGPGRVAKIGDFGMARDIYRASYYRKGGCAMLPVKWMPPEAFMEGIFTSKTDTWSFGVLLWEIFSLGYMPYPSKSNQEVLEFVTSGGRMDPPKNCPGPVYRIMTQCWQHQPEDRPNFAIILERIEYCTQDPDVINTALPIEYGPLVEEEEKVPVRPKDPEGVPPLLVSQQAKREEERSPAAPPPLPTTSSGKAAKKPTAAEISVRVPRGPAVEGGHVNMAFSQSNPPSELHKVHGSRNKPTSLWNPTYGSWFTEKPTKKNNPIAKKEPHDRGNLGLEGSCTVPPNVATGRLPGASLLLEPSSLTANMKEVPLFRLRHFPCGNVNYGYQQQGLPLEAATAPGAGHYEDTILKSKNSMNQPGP
Protocol: as §1

ERK5 = molecular target: T7, ERK5 (Homo sapiens, UniProt Q13164)
T7 construct: purchased Reaction Biology Europe GmbH (formerly ProQinase)
T7 sequence (Q13164 whole entry): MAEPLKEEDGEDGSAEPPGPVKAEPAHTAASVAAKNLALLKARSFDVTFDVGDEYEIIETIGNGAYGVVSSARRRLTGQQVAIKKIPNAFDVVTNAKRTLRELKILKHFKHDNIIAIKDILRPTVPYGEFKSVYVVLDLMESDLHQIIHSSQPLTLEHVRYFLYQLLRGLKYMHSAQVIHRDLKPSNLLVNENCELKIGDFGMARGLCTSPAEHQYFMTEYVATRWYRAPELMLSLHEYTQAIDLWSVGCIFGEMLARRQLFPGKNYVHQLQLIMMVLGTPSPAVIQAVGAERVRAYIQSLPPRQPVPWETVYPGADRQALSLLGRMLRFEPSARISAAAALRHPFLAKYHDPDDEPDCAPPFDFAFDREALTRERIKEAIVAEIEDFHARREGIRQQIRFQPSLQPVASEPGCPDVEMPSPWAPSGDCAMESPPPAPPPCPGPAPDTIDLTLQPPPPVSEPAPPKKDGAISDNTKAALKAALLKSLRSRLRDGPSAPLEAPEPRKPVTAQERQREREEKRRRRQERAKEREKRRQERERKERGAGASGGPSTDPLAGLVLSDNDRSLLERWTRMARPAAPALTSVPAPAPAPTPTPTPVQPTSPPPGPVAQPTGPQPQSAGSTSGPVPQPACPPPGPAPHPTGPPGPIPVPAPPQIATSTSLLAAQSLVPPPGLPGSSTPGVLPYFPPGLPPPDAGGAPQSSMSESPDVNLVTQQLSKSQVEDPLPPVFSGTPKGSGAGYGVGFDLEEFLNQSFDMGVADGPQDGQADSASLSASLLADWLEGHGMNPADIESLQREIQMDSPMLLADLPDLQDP
Protocol: as §1

PAK4 = molecular target: T8, PAK4 (Homo sapiens, UniProt O96013)
T8 construct: purchased Reaction Biology Europe GmbH (formerly ProQinase)
T8 sequence (O96013 whole entry): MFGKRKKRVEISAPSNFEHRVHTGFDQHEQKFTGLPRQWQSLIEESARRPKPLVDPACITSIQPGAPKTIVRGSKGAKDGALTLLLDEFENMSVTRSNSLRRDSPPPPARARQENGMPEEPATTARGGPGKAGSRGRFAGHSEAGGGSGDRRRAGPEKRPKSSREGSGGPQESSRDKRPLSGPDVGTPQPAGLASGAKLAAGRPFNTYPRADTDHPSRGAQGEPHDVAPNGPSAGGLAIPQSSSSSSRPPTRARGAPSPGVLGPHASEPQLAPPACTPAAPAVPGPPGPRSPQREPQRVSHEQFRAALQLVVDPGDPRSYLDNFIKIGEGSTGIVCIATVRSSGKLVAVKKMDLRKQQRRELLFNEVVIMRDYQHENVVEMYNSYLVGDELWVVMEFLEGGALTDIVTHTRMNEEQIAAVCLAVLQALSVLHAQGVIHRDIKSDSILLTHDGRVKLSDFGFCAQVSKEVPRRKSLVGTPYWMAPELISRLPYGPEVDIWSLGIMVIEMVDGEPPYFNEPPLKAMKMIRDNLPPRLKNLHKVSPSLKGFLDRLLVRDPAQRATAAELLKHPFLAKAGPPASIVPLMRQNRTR
Protocol: as §1

PKCΔ = molecular target: T9, PKCΔ (Homo sapiens, UniProt Q05655)
T9 construct: purchased Reaction Biology Europe GmbH (formerly ProQinase)
T9 sequence (Q05655 whole entry, stated change not applied): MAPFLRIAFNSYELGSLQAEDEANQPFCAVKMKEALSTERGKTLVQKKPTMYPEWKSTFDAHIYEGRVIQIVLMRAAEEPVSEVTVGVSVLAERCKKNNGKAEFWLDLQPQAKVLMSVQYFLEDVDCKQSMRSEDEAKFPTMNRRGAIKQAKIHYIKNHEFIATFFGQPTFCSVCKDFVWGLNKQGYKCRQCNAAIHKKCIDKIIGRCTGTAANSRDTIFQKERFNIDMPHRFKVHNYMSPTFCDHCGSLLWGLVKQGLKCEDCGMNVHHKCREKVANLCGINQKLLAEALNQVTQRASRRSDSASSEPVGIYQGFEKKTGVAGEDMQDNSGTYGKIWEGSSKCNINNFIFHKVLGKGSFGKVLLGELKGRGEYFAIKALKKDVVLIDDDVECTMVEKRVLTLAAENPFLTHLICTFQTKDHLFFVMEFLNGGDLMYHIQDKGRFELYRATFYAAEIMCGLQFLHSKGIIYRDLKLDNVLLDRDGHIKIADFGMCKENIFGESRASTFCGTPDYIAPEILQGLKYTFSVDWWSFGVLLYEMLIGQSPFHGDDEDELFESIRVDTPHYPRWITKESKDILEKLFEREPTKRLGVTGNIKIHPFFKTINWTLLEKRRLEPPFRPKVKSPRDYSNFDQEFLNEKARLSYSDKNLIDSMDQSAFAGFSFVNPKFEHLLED
Protocol: as §1

TRKC = molecular target: T10, TRKC (Homo sapiens, UniProt Q16288)
T10 construct: purchased Reaction Biology Europe GmbH (formerly ProQinase)
Protocol: as §1

PAK7 = molecular target: T11, PAK7 (Homo sapiens, UniProt Q9P286)
T11 construct: purchased Reaction Biology Europe GmbH (formerly ProQinase)
Protocol: as §1

MEK2 = molecular target: T12, MEK2 (Homo sapiens, UniProt P36507)
T12 construct: purchased Reaction Biology Europe GmbH (formerly ProQinase)
T12 sequence (P36507 whole entry): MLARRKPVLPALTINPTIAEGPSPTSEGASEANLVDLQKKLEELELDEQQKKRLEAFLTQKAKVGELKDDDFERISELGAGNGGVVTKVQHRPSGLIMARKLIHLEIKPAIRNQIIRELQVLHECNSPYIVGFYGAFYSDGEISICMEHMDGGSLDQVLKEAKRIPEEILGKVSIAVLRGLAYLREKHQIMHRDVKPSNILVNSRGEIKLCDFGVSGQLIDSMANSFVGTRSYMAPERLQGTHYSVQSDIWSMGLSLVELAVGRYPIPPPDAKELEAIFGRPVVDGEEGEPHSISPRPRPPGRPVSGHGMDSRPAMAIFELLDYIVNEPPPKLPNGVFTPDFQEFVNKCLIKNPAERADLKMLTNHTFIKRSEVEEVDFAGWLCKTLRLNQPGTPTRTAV
Protocol: as §1

CDK18/CycY = molecular target: T13, CDK18/CycY (Homo sapiens, UniProt Q07002)
T13 construct: purchased Reaction Biology Europe GmbH (formerly ProQinase)
Protocol: as §1

Compound | residual kinase activity (RIPK4; 0.3 µM) | residual kinase activity (MARK4; 0.3 µM) | residual kinase activity (CDK9/CycK; 0.3 µM) | residual kinase activity (RPS6KA6; 0.3 µM) | residual kinase activity (GRK4; 0.3 µM) | residual kinase activity (ALK; 0.3 µM) | residual kinase activity (ERK5; 0.3 µM) | residual kinase activity (PAK4; 0.3 µM) | residual kinase activity (PKCΔ; 0.3 µM) | residual kinase activity (TRKC; 0.3 µM) | residual kinase activity (PAK7; 0.3 µM) | residual kinase activity (MEK2; 0.3 µM) | residual kinase activity (CDK18/CycY; 0.3 µM) | further results
c1ccc(CNc2cc(-c3c[nH]c4ncccc34)ccn2)cc1 [meriolin 36] | 88 % of control | 90 % of control | 2 % of control | 13 % of control | 108 % of control | 60 % of control | 13 % of control | 56 % of control | 4 % of control | 18 % of control | 42 % of control | 13 % of control | 6 % of control | residual kinase activity (RIPK4; 3 µM): 45 % of control; residual kinase activity (MARK4; 3 µM): 54 % of control; residual kinase activity (CDK9/CycK; 3 µM): 0 % of control; residual kinase activity (RPS6KA6; 3 µM): 3 % of control; residual kinase activity (GRK4; 3 µM): 95 % of control; residual kinase activity (ALK; 3 µM): 14 % of control; residual kinase activity (ERK5; 3 µM): 8 % of control; residual kinase activity (PAK4; 3 µM): 16 % of control; residual kinase activity (PKCΔ; 3 µM): 0 % of control; residual kinase activity (TRKC; 3 µM): 2 % of control; residual kinase activity (PAK7; 3 µM): 9 % of control; residual kinase activity (MEK2; 3 µM): 3 % of control; residual kinase activity (CDK18/CycY; 3 µM): 0 % of control
COc1ccnc2[nH]cc(-c3cc(N)nc(N)c3)c12 [meriolin 16] | 75 % of control | 91 % of control | 0 % of control | 48 % of control | 90 % of control | 77 % of control | 22 % of control | 74 % of control | 6 % of control | 36 % of control | 81 % of control | 48 % of control | 5 % of control | residual kinase activity (RIPK4; 0.03 µM): 94 % of control; residual kinase activity (MARK4; 0.03 µM): 99 % of control; residual kinase activity (CDK9/CycK; 0.03 µM): 7 % of control; residual kinase activity (RPS6KA6; 0.03 µM): 84 % of control; residual kinase activity (GRK4; 0.03 µM): 101 % of control; residual kinase activity (ALK; 0.03 µM): 104 % of control; residual kinase activity (ERK5; 0.03 µM): 28 % of control; residual kinase activity (PAK4; 0.03 µM): 86 % of control; residual kinase activity (PKCΔ; 0.03 µM): 47 % of control; residual kinase activity (TRKC; 0.03 µM): 72 % of control; residual kinase activity (PAK7; 0.03 µM): 89 % of control; residual kinase activity (MEK2; 0.03 µM): 66 % of control; residual kinase activity (CDK18/CycY; 0.03 µM): 36 % of control
